Results: US6355799B1, “Substituted benzene compounds, process for their preparation, and herbicidal and defoliant compositions containing them” (ISK Americas Incorporated, priority 1997, dated 2002)

Legend:
Format in all cases: in vivo
[1] = system: upland rice (Oryza sp., var. Tebonnet, RICE); test: Post-emerge test, crop safety; conditions: rating scale 0-100 (0 no damage, 100 complete death), 14 days after application
In short: (§1)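 Fourteen days after spraying, crop and weed injury was graded visually from 0, no effect, to 100, every plant dead. Test substances were dissolved in acetone and applied at 15–1000 g ai/ha with a flat-fan nozzle. Application was either pre-emergence, one day after sowing, or post-emergence at the 2–3 leaf stage.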

[2] = system: field corn (Zea mays L., var. Dekalb 535, CORN); test: Post-emerge test, crop safety; conditions: rating scale 0-100 (0 no damage, 100 complete death), 14 days after application
In short: as §1

[3] = system: redroot pigweed (Amaranthus retroflexus, AMARE); test: Pre-emerge test, greenhouse herbicide activity screening; conditions: rating scale 0-100, 14 days after application
In short: (§2)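 Visual ratings on a 0-100 scale (0 no damage, 100 all plants dead) were taken at 14 days after treatment. Rates of 15-1000 g ai/ha in acetone, 187 l/ha, were sprayed onto soil one day after planting (pre-emerge) or onto 2-3 leaf plants with 0.25% v/v surfactant (post-emerge).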

[4] = system: upland rice (Oryza sp., var. Tebonnet, RICE); test: Pre-emerge test, crop safety; conditions: rating scale 0-100, 14 days after application
In short: (§3)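 Applied at 15–1000 g ai/ha from acetone in 187 l/ha spray volume. Post-emergence applications included 0.25% v/v non-ionic surfactant and reached plants sown 8–21 days before. Pre-emergence applications were incorporated by surface watering. Efficacy or crop damage was rated on a 0–100 scale after 14 days.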

[5] = system: field corn (Zea mays L., var. Dekalb 535, CORN); test: Pre-emerge test, crop safety; conditions: rating scale 0-100, 14 days after application
In short: as §3

[6] = system: large crabgrass (Digitaria sanguinalis, DIGSA); test: Post-emerge test, greenhouse herbicide activity screening; conditions: rating scale 0-100 (0 no damage, 100 complete death), 14 days after application
In short: as §2

[7] = system: velvetleaf (Abutilon theophrasti, ABUTH); test: as above; conditions: rating scale 0-100 (0 no damage, 100 complete death), 14 days after application
In short: as §2

[8] = system: ivyleaf morningglory (Ipomoea hederacea, IPOHE); test: as above; conditions: rating scale 0-100 (0 no damage, 100 complete death), 14 days after application
In short: as §2

[9] = system: green foxtail (Setaria viridis, SETVI); test: as above; conditions: rating scale 0-100 (0 no damage, 100 complete death), 14 days after application
In short: as §2

[10] = system: barnyardgrass (Echinochloa crus-galli, ECHCG); test: as above; conditions: rating scale 0-100 (0 no damage, 100 complete death), 14 days after application
In short: as §2

[11] = system: lambsquarters (Chenopodium album, CHEAL); test: as above; conditions: rating scale 0-100 (0 no damage, 100 complete death), 14 days after application
In short: as §2

[12] = system: redroot pigweed (Amaranthus retroflexus, AMARE); test: as above; conditions: rating scale 0-100 (0 no damage, 100 complete death), 14 days after application
In short: as §2

[13] = system: sicklepod (Cassia obtusifolia, CASOB); test: as above; conditions: rating scale 0-100 (0 no damage, 100 complete death), 14 days after application
In short: as §2

[14] = system: johnsongrass (Sorghum halepense, SORHA); test: as above; conditions: rating scale 0-100 (0 no damage, 100 complete death), 14 days after application
In short: as §2

[15] = system: large crabgrass (Digitaria sanguinalis, DIGSA); test: Pre-emerge test, greenhouse herbicide activity screening; conditions: rating scale 0-100, 14 days after application
In short: as §1

[16] = system: velvetleaf (Abutilon theophrasti, ABUTH); test: as above; conditions: rating scale 0-100, 14 days after application
In short: as §1

[17] = system: ivyleaf morningglory (Ipomoea hederacea, IPOHE); test: as above; conditions: rating scale 0-100, 14 days after application
In short: as §1

[18] = system: green foxtail (Setaria viridis, SETVI); test: as above; conditions: rating scale 0-100, 14 days after application
In short: as §1

[19] = system: barnyardgrass (Echinochloa crus-galli, ECHCG); test: as above; conditions: rating scale 0-100, 14 days after application
In short: as §1

[20] = system: lambsquarters (Chenopodium album, CHEAL); test: as above; conditions: rating scale 0-100, 14 days after application
In short: as §1

[21] = system: sicklepod (Cassia obtusifolia, CASOB); test: as above; conditions: rating scale 0-100, 14 days after application
In short: as §1

[22] = system: johnsongrass (Sorghum halepense, SORHA); test: as above; conditions: rating scale 0-100, 14 days after application
In short: as §1

COc1c(Cl)cc(F)c(-n2c(=O)cc(C(F)(F)F)n(C)c2=O)c1CC(Cl)C(=O)OCCOc1ccccc1 (single isomer, unassigned) [14-28]
Post-emerge phytotoxicity rating RICE (crop damage) ([1]; Rate 63 g ai/ha): 0 | Post-emerge phytotoxicity rating RICE (crop damage) ([1]; Rate 250 g ai/ha): 40 | Post-emerge phytotoxicity rating CORN (crop damage) ([2]; Rate 63 g ai/ha): 10 | Post-emerge phytotoxicity rating CORN (crop damage) ([2]; Rate 250 g ai/ha): 70 | Pre-emerge herbicidal activity, phytotoxicity rating AMARE ([3]; 63 g ai/ha): 90 | Pre-emerge herbicidal activity, phytotoxicity rating AMARE ([3]; 250 g ai/ha): 100 | Pre-emerge phytotoxicity rating, crop damage RICE ([4]; 63 g ai/ha): 0 | Pre-emerge phytotoxicity rating, crop damage RICE ([4]; 250 g ai/ha): 0 | Pre-emerge phytotoxicity rating, crop damage CORN ([5]; 63 g ai/ha): 0 | Pre-emerge phytotoxicity rating, crop damage CORN ([5]; 250 g ai/ha): 20 | Post-emerge Herbicidal Activity, phytotoxicity rating DIGSA ([6]; Rate 63 g ai/ha): 20 | Post-emerge Herbicidal Activity, phytotoxicity rating DIGSA ([6]; Rate 250 g ai/ha): 50 | Post-emerge Herbicidal Activity, phytotoxicity rating ABUTH ([7]; Rate 63 g ai/ha): 100 | Post-emerge Herbicidal Activity, phytotoxicity rating ABUTH ([7]; Rate 250 g ai/ha): 100 | Post-emerge Herbicidal Activity, phytotoxicity rating IPOHE ([8]; Rate 63 g ai/ha): 50 | Post-emerge Herbicidal Activity, phytotoxicity rating IPOHE ([8]; Rate 250 g ai/ha): 70 | Post-emerge Herbicidal Activity, phytotoxicity rating SETVI ([9]; Rate 63 g ai/ha): 0 | Post-emerge Herbicidal Activity, phytotoxicity rating SETVI ([9]; Rate 250 g ai/ha): 30 | Post-emerge Herbicidal Activity, phytotoxicity rating ECHCG ([10]; Rate 63 g ai/ha): 100 | Post-emerge Herbicidal Activity, phytotoxicity rating ECHCG ([10]; Rate 250 g ai/ha): 100 | Post-emerge Herbicidal Activity, phytotoxicity rating CHEAL ([11]; Rate 63 g ai/ha): 95 | Post-emerge Herbicidal Activity, phytotoxicity rating CHEAL ([11]; Rate 250 g ai/ha): 100 | Post-emerge Herbicidal Activity, phytotoxicity rating AMARE ([12]; Rate 63 g ai/ha): 90 | Post-emerge Herbicidal Activity, phytotoxicity rating AMARE ([12]; Rate 250 g ai/ha): 100 | Post-emerge Herbicidal Activity, phytotoxicity rating CASOB ([13]; Rate 63 g ai/ha): 30 | Post-emerge Herbicidal Activity, phytotoxicity rating CASOB ([13]; Rate 250 g ai/ha): 30 | Post-emerge Herbicidal Activity, phytotoxicity rating SORHA ([14]; Rate 63 g ai/ha): 0 | Post-emerge Herbicidal Activity, phytotoxicity rating SORHA ([14]; Rate 250 g ai/ha): 50 | Pre-emerge herbicidal activity, phytotoxicity rating DIGSA ([15]; 63 g ai/ha): 0 | Pre-emerge herbicidal activity, phytotoxicity rating DIGSA ([15]; 250 g ai/ha): 100 | Pre-emerge herbicidal activity, phytotoxicity rating ABUTH ([16]; 63 g ai/ha): 0 | Pre-emerge herbicidal activity, phytotoxicity rating ABUTH ([16]; 250 g ai/ha): 80 | Pre-emerge herbicidal activity, phytotoxicity rating IPOHE ([17]; 63 g ai/ha): 0 | Pre-emerge herbicidal activity, phytotoxicity rating IPOHE ([17]; 250 g ai/ha): 0 | Pre-emerge herbicidal activity, phytotoxicity rating SETVI ([18]; 63 g ai/ha): 0 | Pre-emerge herbicidal activity, phytotoxicity rating SETVI ([18]; 250 g ai/ha): 0 | Pre-emerge herbicidal activity, phytotoxicity rating ECHCG ([19]; 63 g ai/ha): 0 | Pre-emerge herbicidal activity, phytotoxicity rating ECHCG ([19]; 250 g ai/ha): 20 | Pre-emerge herbicidal activity, phytotoxicity rating CHEAL ([20]; 63 g ai/ha): 0 | Pre-emerge herbicidal activity, phytotoxicity rating CHEAL ([20]; 250 g ai/ha): 95 | Pre-emerge herbicidal activity, phytotoxicity rating CASOB ([21]; 63 g ai/ha): 0 | Pre-emerge herbicidal activity, phytotoxicity rating CASOB ([21]; 250 g ai/ha): 0 | Pre-emerge herbicidal activity, phytotoxicity rating SORHA ([22]; 63 g ai/ha): 0 | Pre-emerge herbicidal activity, phytotoxicity rating SORHA ([22]; 250 g ai/ha): 40
